The source of these data is patent publication US20030147850A1 (priority 2002, published 2003).

For this assay, the system named is vesicular stomatitis virus (VSV). The assay is classed as cell-based.

Regarding Disodium succinate hexahydrate, the “CPE inhibition, % of IFN control” value was found to be 0%.
